Measured values taken from patent publication US20190010158A1, “ANTITUMOR EFFECT POTENTIATOR COMPRISING PYRROLOPYRIMIDINE COMPOUND” (TAIHO PHARMACEUTICAL CO., LTD, priority 2015, published 2019).
Several values for one entry are separate records, joined by “and”; a condition that tells them apart may be missing. Equal values may be shown once. Read-outs that look alike come from different tables or passages of the source. Each block holds one compound with its values, some of them ahead of it.

Key:
[1] = test system: tumor cell lines shown in Table 24; experiment: Example 2: combined use with tyrosine kinase inhibitor, cell growth inhibition test (IC50 ratio, CI); format: cell-based; details: for Comprehensive Evaluation: combined use with Reference Example Compound 55
[2] = test system: human acute T lymphoblastic leukemia CCRF-CEM cell lines; experiment: Cell growth inhibition 1 (CellTiter-Glo); format: cell-based; details: culture with test compound 72 hours
[3] = SNU-16, Reference Example Compound 55:other compound 1:3.3, at ED50
[4] = SNU-16, Reference Example Compound 55:other compound 1:10, at ED50

SMILES: Cc1cc(Nc2ncnc3ccc(NC4=NC(C)(C)CO4)cc23)ccc1Oc1ccn2ncnc2c1 [ARRY380]
CI ([1]; A431, Reference Example Compound 55:other compound 1:36 (only ratio calculated), at ED50): 0.34 | Comprehensive Evaluation ([1]; A431): Synergism (0.3-0.7)

SMILES: CN(C)C/C=C/C(=O)Nc1cc2c(Nc3ccc(F)c(Cl)c3)ncnc2cc1O[C@H]1CCOC1 [Afatinib, afatinib]
CI ([1]; A549, Reference Example Compound 55:other compound 1:1.7, at ED50): 0.70 | CI ([1]; A549, Reference Example Compound 55:other compound 1:5, at ED50): 0.48 | Comprehensive Evaluation ([1]; A549): Synergism (0.3-0.7)

SMILES: CCc1cc2c(cc1N1CCC(N3CCOCC3)CC1)C(C)(C)c1[nH]c3cc(C#N)ccc3c1C2=O [Alectinib, alectinib]
CI ([1]; MM.1S, Reference Example Compound 55:other compound 1:3000, at ED50): 0.58 | CI ([1]; MM.1S, Reference Example Compound 55:other compound 1:9000, at ED50): 0.59 | Comprehensive Evaluation ([1]; MM.1S): Synergism (0.3-0.7)

SMILES: CC1(COc2ccc3c(c2)ncn3-c2ccc3cccc(N4CCC(N)CC4)c3n2)COC1 [Crenolanib, crenolanib]
CI ([1]; MV4-11, Reference Example Compound 55:other compound 1:3.7, at ED50): 0.91 | CI ([1]; MV4-11, Reference Example Compound 55:other compound 1:11, at ED50): 0.83 | Comprehensive Evaluation ([1]; MV4-11): Additive (0.9-1.10)

SMILES: C[C@@H](Oc1cc(-c2cnn(C3CCNCC3)c2)cnc1N)c1c(Cl)ccc(F)c1Cl [Crizotinib, crizotinib]
CI ([1]; MM.1S, Reference Example Compound 55:other compound 1:37, at ED50): 0.87 | CI ([1]; MM.1S, Reference Example Compound 55:other compound 1:111, at ED50): 0.74 | Comprehensive Evaluation ([1]; MM.1S): Slight

SMILES: Cc1nc(Nc2ncc(C(=O)Nc3c(C)cccc3Cl)s2)cc(N2CCN(CCO)CC2)n1 [Dasatinib, dasatinib]
CI ([1]; HCT116, Reference Example Compound 55:other compound 1:300, at ED50): 0.83 | CI ([1]; HCT116, Reference Example Compound 55:other compound 1:900, at ED50): 0.96 | Comprehensive Evaluation ([1]; HCT116): Additive (0.9-1.10)

SMILES: C#Cc1cccc(Nc2ncnc3cc(OCCOC)c(OCCOC)cc23)c1 [Erlotinib, erlotinib]
CI [1]: 0.45 | CI ([1]; A549, Reference Example Compound 55:other compound 1:10, at ED50): 0.54 | Comprehensive Evaluation ([1]; A549): Synergism (0.3-0.7)

SMILES: COc1cc2ncnc(Nc3ccc(F)c(Cl)c3)c2cc1OCCCN1CCOCC1 [Gefitinib, gefitinib]
CI ([1]; A431, Reference Example Compound 55:other compound 1:5, at ED50): 0.33 | CI ([1]; A431, Reference Example Compound 55:other compound 1:15, at ED50): 0.32 | Comprehensive Evaluation ([1]; A431): Synergism (0.3-0.7)

SMILES: Cc1ccc(NC(=O)c2ccc(CN3CCN(C)CC3)cc2)cc1Nc1nccc(-c2cccnc2)n1 [Imatinib, imatinib]
CI [1]: 0.31 and 0.35 | Comprehensive Evaluation ([1]; A549): Synergism (0.3-0.7)

SMILES: CS(=O)(=O)CCNCc1ccc(-c2ccc3ncnc(Nc4ccc(OCc5cccc(F)c5)c(Cl)c4)c3c2)o1 [Lapatinib, lapatinib]
CI ([1]; A431, Reference Example Compound 55:other compound 1:10, at ED50): 0.15 | CI ([1]; A431, Reference Example Compound 55:other compound 1:30, at ED50): 0.19 | Comprehensive Evaluation ([1]; A431): Strong

SMILES: COc1cc2nccc(Oc3ccc(NC(=O)NC4CC4)c(Cl)c3)c2cc1C(N)=O [Lenvatinib, lenvatinib]
CI [1, 3]: 0.44 | CI [1, 4]: 0.63 | Comprehensive Evaluation ([1]; SNU-16): Synergism (0.3-0.7)

SMILES: Cc1ccc(NC(=O)c2ccc(CN3CCN(C)CC3)cc2)cc1Nc1nc(-c2cccnc2)cs1 [Masitinib, masitinib]
CI ([1]; MOLT-4, Reference Example Compound 55:other compound 1:33, at ED50): 0.31 | CI ([1]; MOLT-4, Reference Example Compound 55:other compound 1:100, at ED50): 0.20 | Comprehensive Evaluation ([1]; MOLT-4): Synergism (0.3-0.7)

SMILES: C=CC(=O)Nc1cc(Nc2nccc(-c3cn(C)c4ccccc34)n2)c(OC)cc1N(C)CCN(C)C [Osimertinib, osimertinib]
CI ([1]; NCI-H1975, Reference Example Compound 55:other compound 1:0.01, at ED50): 0.96 | CI ([1]; NCI-H1975, Reference Example Compound 55:other compound 1:0.03, at ED50): 0.99 | Comprehensive Evaluation ([1]; NCI-H1975): Additive (0.9-1.10)

SMILES: Cc1ccc(Nc2nccc(N(C)c3ccc4c(C)n(C)nc4c3)n2)cc1S(N)(=O)=O [Pazopanib, pazopanib]
CI ([1]; SNU-16, Reference Example Compound 55:other compound 1:30, at ED50): 0.71 | CI ([1]; SNU-16, Reference Example Compound 55:other compound 1:90, at ED50): 0.52

SMILES: Cc1ccc(C(=O)Nc2ccc(CN3CCN(C)CC3)c(C(F)(F)F)c2)cc1C#Cc1cnc2cccnn12 [Ponatinib, ponatinib]
CI [1]: 0.46 and 0.36

SMILES: CC(C)(C)c1cc(NC(=O)Nc2ccc(-c3cn4c(n3)sc3cc(OCCN5CCOCC5)ccc34)cc2)no1 [Quizartinib, quizartinib]
CI ([1]; MOLT-4, Reference Example Compound 55:other compound 1:111, at ED50): 0.39 | CI ([1]; MOLT-4, Reference Example Compound 55:other compound 1:333, at ED50): 0.44 | Comprehensive Evaluation ([1]; MOLT-4): Synergism (0.3-0.7)

IC50 [2]: 600 nM
SMILES: Nc1ncnc2c1c(C#CCc1c(F)cccc1F)cn2[C@@H]1O[C@H](CNS(N)(=O)=O)[C@@H](O)[C@H]1O [Reference Example 31, 4-Amino-5-[3-(2,6-difluorophenyl)prop-1-ynyl]-7-[(2R,3R,4S,5R)-3,4-dihydroxy-5-[(sulfamoylamino)methyl]tetrahydrofuran-2-yl]pyrrolo[2,3-d]pyrimidine]

IC50 [2]: 2500 nM
SMILES: Nc1ncnc2c1c(C#Cc1c(F)cc(NCCO)cc1F)cn2[C@@H]1O[C@H](CNS(N)(=O)=O)[C@@H](O)[C@H]1O [Reference Example 32, 4-Amino-5-[2-[2,6-difluoro-4-(2-hydroxyethylamino)phenyl]ethynyl]-7-[(2R,3R,4S,5R)-3,4-dihydroxy-5-[(sulfamoylamino)methyl]tetrahydrofuran-2-yl]pyrrolo[2,3-d]pyrimidine]

IC50 [2]: 6.1 nM
SMILES: CCOc1cc(N2CCOCC2)cc(F)c1C#Cc1cn([C@@H]2O[C@H](CNS(N)(=O)=O)[C@@H](O)[C@H]2O)c2ncnc(N)c12 [Reference Example 34, 4-[4-[2-[4-Amino-7-[(2R,3R,4S,5R)-3,4-dihydroxy-5-[(sulfamoylamino)methyl]tetrahydrofuran-2-yl]pyrrolo[2,3-d]pyrimidin-5-yl]ethynyl]-3-ethoxy-5-fluoro-phenyl]morpholine]

IC50 [2]: 2 nM
SMILES: CCOc1cc(F)cc(F)c1C#Cc1cn([C@@H]2O[C@H](CNS(N)(=O)=O)[C@@H](O)[C@H]2O)c2ncnc(N)c12 [Reference Example 35, 4-Amino-7-[(2R,3R,4S,5R)-3,4-dihydroxy-5-[(sulfamoylamino)methyl]tetrahydrofuran-2-yl]-5-[2-(2-ethoxy-4,6-difluoro-phenyl)ethynyl]pyrrolo[2,3-d]pyrimidine]

IC50 [2]: 250 nM
SMILES: Nc1ncnc2c1c(C#CCc1ccccc1F)cn2[C@@H]1O[C@H](CNS(N)(=O)=O)[C@@H](O)[C@H]1O [Reference Example 36, 4-Amino-7-[(2R,3R,4S,5R)-3,4-dihydroxy-5-[(sulfamoylamino)methyl]tetrahydrofuran-2-yl]-5-[3-(2-fluorophenyl)prop-1-ynyl]pyrrolo[2,3-d]pyrimidine]

IC50 [2]: 6 nM
SMILES: Nc1ncnc2c1c(C#Cc1c(F)cc(N3CCSCC3)cc1F)cn2[C@@H]1O[C@H](CNS(N)(=O)=O)[C@@H](O)[C@H]1O [Reference Example 37, 4-[4-[2-[4-Amino-7-[(2R,3R,4S,5R)-3,4-dihydroxy-5-[(sulfamoylamino)methyl]tetrahydrofuran-2-yl]pyrrolo[2,3-d]pyrimidin-5-yl]ethynyl]-3,5-difluoro-phenyl]thiomorpholine]

IC50 [2]: 14 nM
SMILES: Nc1ncnc2c1c(C#Cc1c(F)cc(N3CCCC(O)C3)cc1F)cn2[C@@H]1O[C@H](CNS(N)(=O)=O)[C@@H](O)[C@H]1O (stereo partly drawn) [Reference Example 38, 4-Amino-5-[2-[2,6-difluoro-4-(3-hydroxy-1-piperidyl)phenyl]ethynyl]-7-[(2R,3R,4S,5R)-3,4-dihydroxy-5-[(sulfamoylamino)methyl]tetrahydrofuran-2-yl]pyrrolo[2,3-d]pyrimidine]

IC50 [2]: 2.7 nM
SMILES: Nc1ncnc2c1c(C#Cc1c(F)cc(N3CCC3)cc1F)cn2[C@@H]1O[C@H](CNS(N)(=O)=O)[C@@H](O)[C@H]1O [Reference Example 43, 4-amino-5-[2-[4-(azetidin-1-yl)-2,6-difluoro-phenyl]ethynyl]-7-[(2R,3R,4S,5R)-3,4-dihydroxy-5-[(sulfamoylamino)methyl]tetrahydrofuran-2-yl]pyrrolo[2,3-d]pyrimidine]

IC50 [2]: 5.1 nM
SMILES: CCCOc1cccc(F)c1C#Cc1cn([C@@H]2O[C@H](CNS(N)(=O)=O)[C@@H](O)[C@H]2O)c2ncnc(N)c12 [Reference Example 60, 4-Amino-7-[(2R,3R,4S,5R)-3,4-dihydroxy-5-[(sulfamoylamino)methyl]tetrahydrofuran-2-yl]-5-[2-(2-fluoro-6-propoxy-phenyl)ethynyl]pyrrolo[2,3-d]pyrimidine]

IC50 [2]: 4.3 nM
SMILES: CCSc1cccc(F)c1C#Cc1cn([C@@H]2O[C@H](CNS(N)(=O)=O)[C@@H](O)[C@H]2O)c2ncnc(N)c12 [Reference Example 66, 4-Amino-7-[(2R,3R,4S,5R)-3,4-dihydroxy-5-[(sulfamoylamino)methyl]tetrahydrofuran-2-yl]-5-[2-(2-ethylsulfanyl-6-fluoro-phenyl)ethynyl]pyrrolo[2,3-d]pyrimidine]

SMILES: CNC(=O)c1cc(Oc2ccc(NC(=O)Nc3ccc(Cl)c(C(F)(F)F)c3)c(F)c2)ccn1 [Regorafenib, regorafenib]
CI ([1]; SNU-16, Reference Example Compound 55:other compound 1:15, at ED50): 0.88 | CI ([1]; SNU-16, Reference Example Compound 55:other compound 1:45, at ED50): 1.06 | Comprehensive Evaluation ([1]; SNU-16): Additive (0.9-1.10)

SMILES: N#CC[C@H](C1CCCC1)n1cc(-c2ncnc3[nH]ccc23)cn1 [Ruxolitinib, ruxolitinib]
CI [1]: 0.82

SMILES: CCN(CC)CCNC(=O)c1c(C)[nH]c(/C=C2\C(=O)Nc3ccc(F)cc32)c1C [Sunitinib, sunitinib]
CI [1, 3]: 0.86 | CI [1, 4]: 0.91 | Comprehensive Evaluation ([1]; SNU-16): Additive (0.9-1.10)
